Assay results from patent US20030194377A1, “Therapeutic uses of BPI protein products in cystic fibrosis patients” (priority 1996, published 2003).

B1: BPI: bactericidal/permeability-increasing protein isolated from granules of polymorphonuclear leukocytes (protein, UniProt P17213 32-487, looked up)
Bactericidal …: VNPGVVVRISQKGLDYASQQGTAALQKELKRIKIPDYSDSFKIKHLGKGHYSFYSMDIREFQLPSSQISMVPNVGLKFSISNANIKISGKWKAQKRFLKMSGNFDLSIEGMSISADLKLGSNPTSGKPTITCSSCSSHINSVHVHISKSKVGWLIQLFHKKIESALRNKMNSQVCEKVTNSVSSELQPYFQTLPVMTKIDSVAGINYGLVAPPATTAETLDVQMKGEFYSENHHNPPPFAPPVMEFPAAHDRMVYLGLSDYFFNTAGLVYQEAGVLKMTLRDDMIPKESKFRLTTKFFGTFLPEVAKKFPNMKIQIHVSASTPPHLSVQPTGLTFYPAVDVQAFAVLPNSSLASLFLIGMHTTGSMEVSAESNRLVGELKLDRLLLELKHSNIGPFPVELLQDIMNYIVPILVLPRVNEKLQKGFPLPTPARVQLYNVVLQPHQNFLLFGADVVYK
B2: rBPI: recombinant BPI holoprotein (protein, UniProt P17213 32-487, looked up)
Bactericidal …: VNPGVVVRISQKGLDYASQQGTAALQKELKRIKIPDYSDSFKIKHLGKGHYSFYSMDIREFQLPSSQISMVPNVGLKFSISNANIKISGKWKAQKRFLKMSGNFDLSIEGMSISADLKLGSNPTSGKPTITCSSCSSHINSVHVHISKSKVGWLIQLFHKKIESALRNKMNSQVCEKVTNSVSSELQPYFQTLPVMTKIDSVAGINYGLVAPPATTAETLDVQMKGEFYSENHHNPPPFAPPVMEFPAAHDRMVYLGLSDYFFNTAGLVYQEAGVLKMTLRDDMIPKESKFRLTTKFFGTFLPEVAKKFPNMKIQIHVSASTPPHLSVQPTGLTFYPAVDVQAFAVLPNSSLASLFLIGMHTTGSMEVSAESNRLVGELKLDRLLLELKHSNIGPFPVELLQDIMNYIVPILVLPRVNEKLQKGFPLPTPARVQLYNVVLQPHQNFLLFGADVVYK

Experiments:
[1] = test system: Pseudomonas aeruginosa strain isolated from a sputum sample from a CF patient; assay: Dade MicroScan gram-negative panels supplemented with rBPI21; assay type: cell-based; details: for change of susceptibility to antibiotic: in combination with rBPI21 formulated with 0.2% poloxamer 403; for change of antibiotic MIC: in combination with rBPI21 formulated with 0.2% poloxamer 403, versus poloxamer 188 formulation; for susceptibility of the strain to combination of rBPI21 and antibiotic: supplemented with 16 μg/mL rBPI21 formulated with 0.2% poloxamer 188
[2] = test system: autoantibodies to BPI; details: adult CF patients, Zhao et al. 1996; cited from earlier work
[3] = test system: anti-BPI antibodies; assay: enzyme immunoassay of BPI antibody titers in plasma samples from cystic fibrosis patients; assay type: binding, human; details: 11 CF patient plasma samples, dilutions 1/100 to 1/12,800; protein coated as antigen
Protocol: Plasma samples from 11 cystic fibrosis (CF) patients were tested for the presence of anti-BPI antibodies as follows. BPI holoprotein (rBPI) or an N-terminal BPI protein product (rBPI21) were used as antigen sources in an enzyme immunoassay. The wells of Immulon 2 microtiter plates (Dynatech Laboratories Inc., Chantilly, Va.) were coated overnight at 2-8° C. with 50 uL of rBPI21 (0.5 μg/mL) or rBPI (1 μg/mL) diluted in phosphate buffered saline, pH 7.2 (PBS). Unbound BPI was removed and 200 μL of PBS containing 0.1% human serum albumin and 0.1% goat serum was added to all wells. After blocking the plates for 1 hour at room temperature, the wells were washed 3 times with 300 μL of wash buffer (PBS/0.5% Tween 20). Plasma samples were prepared as serial two-fold dilutions from 1/100 to 1/12,800. Plasma samples were diluted in triplicate with PBS containing 1% bovine serum albumin, 1% goat serum and 0.05% Tween 20 (PBS-BSA-GS/Tween). […] The absorbance at 405 nm (A405) was determined for all wells using a Vmax Plate Reader (Molecular Devices Corp., Menlo Park, Calif.).
The mean A405 for all samples were corrected for background by subtracting the mean A405 of wells receiving sample dilution buffer (no plasma) in the primary incubation step. […] An absorbance greater than 0.05 units was considered to be above background.

Row | Molecule | change of susceptibility to antibiotic [1] | susceptibility of the strain to combination of rBPI21 and antibiotic [1] | other results
1 | CC1(C)S[C@@H]2[C@H](NC(=O)[C@H](NC(=O)N3CCNC3=O)c3ccccc3)C(=O)N2[C@H]1C(=O)O [azlocillin] | increased susceptibity | – | –
2 | C[C@H]1[C@H](NC(=O)/C(=N\OC(C)(C)C(=O)O)c2csc(N)n2)C(=O)N1S(=O)(=O)O [aztreonam] | – | susceptible | change of antibiotic MIC [1]: further decreased the MICs
3 | CC1(C)S[C@@H]2[C@H](NC(=O)C(C(=O)O)c3ccccc3)C(=O)N2[C@H]1C(=O)O (stereo partly shown) [carbenicilin] | – | susceptible | –
4 | O=C(N[C@H](CO)[C@H](O)c1ccc([N+](=O)[O-])cc1)C(Cl)Cl [chloramphenicol] | increased susceptibity | – | –
5 | O=C(O)c1cn(C2CC2)c2cc(N3CCNCC3)c(F)cc2c1=O [ciprofloxacin] | – | susceptible | change of antibiotic MIC [1]: further decreased the MICs
6 | CCN[C@@H]1C[C@H](N)[C@@H](O[C@H]2OC(CN)=CC[C@H]2N)[C@H](O)[C@H]1O[C@H]1OC[C@](C)(O)[C@H](NC)[C@H]1O [netilmicin] | increased susceptibity | – | –
7 | NC[C@H]1O[C@H](O[C@H]2[C@H](O)[C@@H](O[C@H]3O[C@H](CO)[C@@H](O)[C@H](N)[C@H]3O)[C@H](N)C[C@@H]2N)[C@H](N)C[C@@H]1O [tobramycin] | – | susceptible | –
8 | Augmentin | increased susceptibity | – | –
9 | sulfamethoxazole/trimethoprim | – | susceptible | –
10 | B1 | – | – | sera with autoantibodies to BPI [2]: 60/66
11 | B2 | – | – | plasma samples with detectable immune response (A405>0.05) [3]: 7/11
